Experimental data as given in patent publication US12612424B2, “HPK1 inhibitors and uses thereof” (Regor Pharmaceuticals, Inc., priority 2019, dated 2026).

Key:
[1] = target: HPK1 (Homo sapiens, UniProt Q92918); experiment: HPK1 biochemical assay (ADP-GLO Kinase Assay); settings: B*: testing performed in a first testing facility; read-out: HPK1 IC50 (nM) Relative, B*
From the text: IC50 values of any compounds can be determined accordingly over a range of inhibitor concentrations. In addition, the inhibitory effect of the compounds can also be assess using a biological assay, to determine the effect of the compounds on cytokine secretion by T cells following TCR and CD28 stimulation.
Biology Example 1 HPK1 Biochemical Assay
This example used the ADP-GLO™ Kinase Assay to measure the effect of potential HPK1 inhibitor compounds on HPK1 kinase activity.
The ADP-GLO™ Kinase Assay (Promega Corp., Madison, WI) measures ADP formed from a kinase reaction. According to the manufacture, the ADP formed in a kinase assay is first converted into ATP, which is then used to generate light in a luciferase reaction. The luminescence generated correlates with kinase activity. An exemplary experimental setting is described below, though minor adjustments can be made in individual assays.
Serial 3-fold dilution of compounds from 10 μM (top concentration) to 0.508 nM (lowest concentration). Positive control is 10 μM Reference+enzyme+substrate. Negative control is 1% DMSO+enzyme+substrate.
• 1. Buffer Preparation • 40 mM Tris pH7.5; 20 mM MgCl2, 0.1 mg/ml BSA, 50 μM DTT Buffer Stock
Add 20 mL 1M Tris and 10 mL 1M MgCl2 to 470 mL ddH2O to get buffer stock, and stock at RT. • 2. Preparing Fresh 1* Assay Buffer
• 3. Compounds Preparation • 1) The compounds were diluted to 1 mM, by mixing 10 μL of 10 mM respective compound stocks with 90 μL of DMSO. • 2) The compounds were then diluted 3-fold for 10 doses (5 μL to 10 μL dilution) by BRAVO. The top compound conc. was 1 mM (100×), DMSO Conc. was 100%. • 3) Transfer 100 nL of each diluted compound sample to 384-well plate (Corning-4512) by ECHO. • 4) Centrifuge the plate at 1,500 rpm for 1 minute. • 4. Preparation of 2×ATP-MBP Mixture: • 20 μM ATP, 0.2 μg/μL MBP in Kinase Buffer (final concentration: 10 μM ATP, 0.1 MBP)
• 5. Preparation of 2×HPK1 working solution with assay buffer. • HPK1 final concentration was 0.6 ng/μL. […] Incubate at 25° C. for 40 min. • 11. Record luminescence signal on an Envision plate reader (384-CTG). 5. Data Analysis
The percent (%) inhibition at each concentration of compound is calculated based on and relative to the signal in the High and Low control wells contained within each assay plate. […] The concentrations and % inhibition values for tested compounds were plotted and the concentration of compound required for 50% inhibition (IC50) was determined with a Three-parameter logistic dose response equation. The endpoint value (IC50) for the reference peptide/compound was evaluated in each experiment as a quality control measure. If the endpoint value was within 3-fold of the expected value, then the experiment was deemed acceptable.

[2] = target: T1, JAK3 (Homo sapiens, UniProt P52333); experiment: JAK3 biochemical assay (ADP-GLO Kinase Assay); settings: for IC50: B*: testing performed in a first testing facility, read-out: JAK3 IC50 (nM) Relative, B*; for JAKs/HPK1 IC50 Ratio, B*: ratio of JAK3 IC50 to HPK1 IC50, first testing facility
T1 construct: purchased Thermo fisher PV3855
Procedure: Biology Example 4 JAK3 Biochemical Assay
This example used the ADP-GLO™ Kinase Assay to measure the effect of potential HPK1 inhibitor compounds on JAK3 kinase activity. An exemplary experimental setting is described below, though minor adjustments can be made in individual assays.
3. Procedures • 1. Prepare JAK3 kinase buffer • Freshly adding DTT and BSA into Buffer (Final Conc.: 40 mM Tris pH7.5; 20 mM MgCl2, 0.1 mg/ml BSA, 50 μM DTT).
• 2. Compounds Preparation • For tested compounds: compounds were diluted to 1 mM, by mixing 5 μL of 10 mM compound stocks to 45 μL DMSO. The compounds solutions were then serially diluted 3-fold for 10 doses. The top compound concentration was 1 mM (100×), DMSO concentration was 100%. • 50 nL of each of 10 doses of diluted compound were added to 384-well assay plate (Corning #4512) by ECHO. • For positive control, 50 nL of 1 mM reference compound were added to 384-well assay plate (Corning #4512) by ECHO. • For negative control: 50 nL of DMSO was transferred into 384-well assay plate as a negative control. • The assay plate was centrifuged at 1,500 rpm for 1 minute. • 3. Compounds were Transferred by ECHO Following the Layout Below: • Reference and test compounds 1-15: serial 3-fold dilution from 10 μM to 0.508 nM (10 doses); negative control is 0.78 ng JAK3, 4 μM ATP & 0.2 μg/μL poly, 1% DMSO; positive control is the top dose of the reference compound, 0.78 ng JAK3, 0.2 μg/μL Poly(E4Y1), 4 μMATP, 1% DMSO. • 4. Add 2.5 μL/well of 2×JAK3 working solution using pipette (Thermo, 30 μL multi-channel), Centrifuge at 1,500 rpm for 1 minute. • 5. Add 2.5 μL/well of 2×ATP-Poly(E4Y1) working mixture using pipette (Thermo, 30 μL multi-channel), Centrifuge at 1,500 rpm for 1 minute. • 6. Incubate the assay plate at 25° C. for 60 min. • 7. Add 5 μL/well ADP-GLO™ Reagent by BRAVO to stop the kinase reaction and deplete the unconsumed ATP after 1 hour. Centrifuge at 1,500 rpm for 1 minute. Incubate at 25° C. for 40 min. • 8. Add 10 uL of Kinase Detection Reagent by BRAVO to convert ADP to ATP. Centrifuge at 1,500 rpm for 1 minute. Incubate at 25° C. for 40 min. • 9. Record luminescence signal on an Envision plate reader (384-USL). • 10. Process data using XL-fit. Inhibition %=[1-(test well−Negative control)/(positive control−Negative control)]*100%. 5. Data Analysis
The percent (%) inhibition at each concentration of compound is calculated based on and relative to the signal in the Negative and Positive control wells contained within each assay plate. The Negative control wells served as 0% inhibition, and the Positive control wells served as 100% inhibition. The concentrations and % inhibition values for tested compounds are plotted and the concentration of compound required for 50% inhibition (IC50) is determined with a Three-parameter logistic dose response equation. The endpoint value (IC50) for the reference peptide/compound is evaluated in each experiment as a quality control measure. If the endpoint value was within 3-fold of the expected value then the experiment was deemed acceptable.

T1 sequence (P52333 781-1124 limits assumed): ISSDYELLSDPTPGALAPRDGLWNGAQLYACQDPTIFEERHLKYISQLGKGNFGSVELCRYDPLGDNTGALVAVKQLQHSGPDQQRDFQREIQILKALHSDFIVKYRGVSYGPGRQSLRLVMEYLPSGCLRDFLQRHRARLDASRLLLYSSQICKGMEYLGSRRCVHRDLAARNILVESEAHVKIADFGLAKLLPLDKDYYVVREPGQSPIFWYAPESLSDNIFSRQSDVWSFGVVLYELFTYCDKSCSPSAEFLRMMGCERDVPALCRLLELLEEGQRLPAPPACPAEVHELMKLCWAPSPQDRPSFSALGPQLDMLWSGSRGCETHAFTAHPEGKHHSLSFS
HPK1, sequence (Q92918 whole entry): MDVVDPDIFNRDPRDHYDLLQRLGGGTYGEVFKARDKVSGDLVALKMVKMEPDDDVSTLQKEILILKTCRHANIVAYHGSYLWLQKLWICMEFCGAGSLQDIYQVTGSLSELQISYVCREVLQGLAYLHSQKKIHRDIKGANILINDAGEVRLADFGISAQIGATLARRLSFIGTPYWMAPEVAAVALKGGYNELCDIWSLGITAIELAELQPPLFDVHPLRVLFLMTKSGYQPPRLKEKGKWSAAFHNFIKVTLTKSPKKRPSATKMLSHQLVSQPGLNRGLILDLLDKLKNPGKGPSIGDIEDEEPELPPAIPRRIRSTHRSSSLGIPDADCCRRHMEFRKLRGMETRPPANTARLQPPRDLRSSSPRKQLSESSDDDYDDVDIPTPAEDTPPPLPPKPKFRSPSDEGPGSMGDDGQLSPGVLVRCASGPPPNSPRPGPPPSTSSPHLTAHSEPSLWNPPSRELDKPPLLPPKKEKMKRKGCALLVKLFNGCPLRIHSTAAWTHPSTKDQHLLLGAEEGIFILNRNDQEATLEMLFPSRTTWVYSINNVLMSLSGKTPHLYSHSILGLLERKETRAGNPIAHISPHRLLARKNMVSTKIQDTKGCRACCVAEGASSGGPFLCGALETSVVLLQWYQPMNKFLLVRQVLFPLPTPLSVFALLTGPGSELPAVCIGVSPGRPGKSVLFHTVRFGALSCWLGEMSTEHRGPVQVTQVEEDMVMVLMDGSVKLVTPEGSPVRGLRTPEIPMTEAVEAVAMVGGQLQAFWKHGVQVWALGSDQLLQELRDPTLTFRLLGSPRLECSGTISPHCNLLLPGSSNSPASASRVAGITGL

SMILES	IC50 [1]	IC50 [2]	JAKs/HPK1 IC50 Ratio, B* [2]
COc1cc2c(cc1Nc1ncc(Cl)c(-n3cc(S(C)(=O)=O)c4ccccc43)n1)CN(C)CC2 [Example 80, N-(5-chloro-4-(3-(methylsulfonyl)-1H-indol-1-yl)pyrimidin-2-yl)-6-methoxy-2-methyl-1,2,3,4-tetrahydroisoquinolin-7-amine]	≤ 100 nM	> 1000 nM	>1172
COc1cc2c(cc1Nc1ncc(Cl)c(-n3cc(CS(C)(=O)=O)c4ccccc43)n1)CN(C)CC2 [Example 82, N-(5-chloro-4-(3-((methylsulfonyl)methyl)-1H-indol-1-yl)pyrimidin-2-yl)-6-methoxy-2-methyl-1,2,3,4-tetrahydroisoquinolin-7-amine]	≤ 100 nM	> 1000 nM	800
COc1cc2c(cc1Nc1ncc(Cl)c(-n3cc(NS(C)(=O)=O)c4ccccc43)n1)CN(C)CC2 [Example 94, N-(1-(5-chloro-2-((6-methoxy-2-methyl-1,2,3,4-tetrahydroisoquinolin-7-yl)amino)pyrimidin-4-yl)-1H-indol-3-yl)methanesulfonamide]	≤ 100 nM	> 1000 nM	449
COc1cc2c(cc1Nc1ncc(Cl)c(N3CCc4ccccc43)n1)CN(C(=O)CN(C)C)CC2 [Example 26]	≤ 100 nM	–	–
COc1cc2c(cc1Nc1ncc3ccn(-c4cccnc4)c3n1)CN(C)CC2 [Example 40, 6-Methoxy-2-methyl-N-(7-(pyridin-3-yl)-7H-pyrrolo[2,3-d]pyrimidin-2-yl)-1,2,3,4-tetrahydroisoquinolin-7-amine]	≤ 100 nM	–	–
COc1cc2c(cc1Nc1ncc(Cl)c(N3CCc4cccnc43)n1)CN(C)CC2 [Example 17, N-(5-chloro-4-(2,3-dihydro-1H-pyrrolo[2,3-b]pyridin-1-yl)pyrimidin-2-yl)-6-methoxy-2-methyl-1,2,3,4-tetrahydroisoquinolin-7-amine]	100 to 500 nM	–	–
COc1cc2c(cc1Nc1ncc(Cl)c(N3CCc4ccccc4C3)n1)CN(C)CC2 [Example 5, N-(5-chloro-4-(3,4-dihydroisoquinolin-2(1H)-yl)pyrimidin-2-yl)-6-methoxy-2-methyl-1,2,3,4-tetrahydroisoquinolin-7-amine]	100 to 500 nM	–	–
COc1cc2c(cc1Nc1ncc(Cl)c(-c3ccnc4ccccc34)n1)CN(C)CC2 [Example 49, N-(5-chloro-4-(quinolin-4-yl)pyrimidin-2-yl)-6-methoxy-2-methyl-1,2,3,4-tetrahydroisoquinolin-7-amine]	100 to 500 nM	–	–
COc1cc2c(cc1Nc1ncc(Cl)c(-n3c(C(=O)N(C)C)cc4ccccc43)n1)CN(C)CC2 [Example 28]	> 1000 nM	–	–
COc1cc2c(cc1Nc1ncc(Cl)c(N3CCc4c(Cl)cccc43)n1)CN(C)CC2 [Example 12, N-(5-chloro-4-(4-chloroindolin-1-yl)pyrimidin-2-yl)-6-methoxy-2-methyl-1,2,3,4-tetrahydroisoquinolin-7-amine]	100 to 500 nM	–	–
COc1cc2c(cc1Nc1ncc3c(n1)N(c1ccccc1)CCO3)CN(C)CC2 [Example 46, N-(6-methoxy-2-methyl-1,2,3,4-tetrahydroisoquinolin-7-yl)-8-phenyl-7,8-dihydro-6H-pyrimido[5,4-b][1,4]oxazin-2-amine]	100 to 500 nM	–	–

Further lines, results first:

IC50 [1]	IC50 [2]	JAKs/HPK1 IC50 Ratio, B* [2]	SMILES
100 to 500 nM	> 1000 nM	31	COc1cc2c(cc1Nc1ncc(Cl)c(N3CCn4c3cccc4=O)n1)CN(C)CC2 [Example 31]
≤ 100 nM	> 1000 nM	44	CCc1c[nH]c2ncc(-c3ccc(C)c(P(C)(C)=O)n3)cc12 [Example 64, (6-(3-Ethyl-1H-pyrrolo[2,3-b]pyridin-5-yl)-3-methylpyridin-2-yl)dimethylphosphine oxide]
≤ 100 nM	–	–	CCc1c[nH]c2ncc(-c3ccc(Cl)c(P(C)(C)=O)c3)cc12 [Example 52, (2-Chloro-5-(3-ethyl-1H-pyrrolo[2,3-b]pyridin-5-yl)phenyl)dimethylphosphine oxide]
100 to 500 nM	> 1000 nM	3	CCc1c[nH]c2ncc(-c3ccc(N4CCCC4=O)c(P(C)(C)=O)c3)cc12 [Example 66, 1-(2-(Dimethylphosphoryl)-4-(3-ethyl-1H-pyrrolo[2,3-b]pyridin-5-yl)phenyl)pyrrolidin-2-one]
100 to 500 nM	–	–	CCc1c[nH]c2ncc(-c3ccc(OC)c(P(C)(C)=O)c3)cc12 [Example 54, (5-(3-Ethyl-1H-pyrrolo[2,3-b]pyridin-5-yl)-2-methoxyphenyl)dimethylphosphine oxide]
500 to 1000 nM	–	–	CCc1c[nH]c2ncc(-c3cc(C)cc(P(C)(C)=O)c3)cc12 [Example 56, (3-(3-Ethyl-1H-pyrrolo[2,3-b]pyridin-5-yl)-5-methylphenyl)dimethylphosphine oxide]
100 to 500 nM	–	–	COc1cc2c(cc1Nc1ncc3ccc(P(C)(C)=O)cc3n1)CN(C)CC2 [Example 172]
100 to 500 nM	–	–	CCc1c[nH]c2ncc(-c3ccc(N4CCCC4)c(P(C)(C)=O)c3)cc12 [Example 59]
100 to 500 nM	–	–	CCc1c[nH]c2ncc(-c3ccc(NC)c(P(C)(C)=O)c3)cc12 [Example 71, (5-(3-Ethyl-1H-pyrrolo[2,3-b]pyridin-5-yl)-2-(methylamino)phenyl)dimethylphosphine oxide]
> 1000 nM	–	–	COc1cc2c(cc1Nc1ncc3ncn(-c4ccccc4P(C)(C)=O)c3n1)CN(C)CC2 [Example 45, (2-(2-((6-Methoxy-2-methyl-1,2,3,4-tetrahydroisoquinolin-7-yl)amino)-9H-purin-9-yl)phenyl)dimethylphosphine oxide]
100 to 500 nM	–	–	CCc1c[nH]c2ncc(-c3cccc(P(C)(C)=O)c3)cc12 [Example 53, (3-(3-Ethyl-1H-pyrrolo[2,3-b]pyridin-5-yl)phenyl)dimethylphosphine oxide]
